Assay results: patent US20260345517A1, “DOSAGE REGIMENS FOR TREATING STARGARDT DISEASE” (Alkeus Pharmaceuticals, Inc., priority 2024, published 2026)
Entries after “also recorded” stand apart in the source; their conditions may differ.

Tests used:
Format in all cases: in vivo, human
[1] = system: asymptomatic Stargardt disease patients; experiment: TEASE-3: best-corrected visual acuity (BCVA); conditions: 14 mg daily
Description: (§1) The tolerability and effects of gildeuretinol acetate in Stargardt Disease (Clinical trial group 3 also known as TEASE-3) study was an open-label, multicenter, case control study designed to evaluate the efficacy and safety of gildeuretinol acetate on the progression of Stargardt disease in asymptomatic individuals. The trial was conducted at multiple sites in the United States.
To assess the safety and efficacy of gildeuretinol acetate in preventing vision loss in asymptomatic individuals, gildeuretinol acetate 14 mg capsules was administered to individuals showing early signs of retinal damage while maintaining approximately 20/20 vision and no subjective loss of vision. […] Based on the above family history and clinical observations, the individuals were likely to develop retinal lesions, loss of photoreceptors, drops in retinal sensitivity, loss of visual acuity, indicating the onset of symptoms, i.e. a progression to the symptomatic phase, including vision loss within two years, mirroring the progression observed in their older siblings.
Patients received gildeuretinol acetate 14 mg capsules, to be taken orally once daily. Trial visits occurred every 6 months approximately following screening and treatment start visits.
(§2) Disease progression was monitored by best-corrected visual acuity (BCVA) reported in number of Early Treatment Diabetic Retinopathy Study (ETDRS) letters, fundus autofluorescence (FAF) imaging, loss of photoreceptors (as measured by the ellipsoid zone band loss) by optical coherence tomography (OCT) according to literature (1-3) and retinal sensitivity by microperimetry.
Measurements from the left and right eye for each patient were averaged for each visit to produce a single statistical unit for both eyes(4). For segmented linear regressions, knot times were selected so that three visits were included in the first segment.

[2] = system: asymptomatic Stargardt disease patients; experiment: TEASE-3: fundus autofluorescence (FAF) imaging; conditions: 14 mg daily, two to four years, three patients
Description: as §1
To assess the safety and efficacy of gildeuretinol acetate in preventing vision loss in asymptomatic individuals, gildeuretinol acetate 14 mg capsules was administered to individuals showing early signs of retinal damage while maintaining approximately 20/20 vision and no subjective loss of vision. […]
as §2, with “microperimetry. […]” for “microperimetry.”

[3] = system: Stargardt disease patients; experiment: TEASE-1: growth rate of atrophic retinal lesions by fundus autofluorescence imaging; design: Percentage Slowing of Atrophic Retinal Lesion Growth Rate With Gildeuretinol Acetate: concentration or dose not given beside the values; conditions: for effect on retinal degeneration / growth of atrophic retinal lesions (in words): 14 to 24 mg daily, up to 24 months, vs placebo and natural history
Description: The Tolerability and Effects of gildeuretinol acetate in Stargardt Disease (Clinical trial group 1 also known as TEASE-1) was a 24-month, multicenter, double-masked, placebo-controlled trial designed to evaluate the efficacy and safety of daily oral gildeuretinol acetate in slowing the growth of atrophic retinal lesions in Stargardt disease patients. The trial was conducted at multiple sites in the United States (NCT02402660).
Patients 12 years or older, clinically diagnosed with Stargardt disease, with at least one ABCA4 mutation, at least one eye presenting with well-demarcated areas of reduced fundus autofluorescence, and with any visual acuity, were eligible.
Patients were randomized to gildeuretinol acetate 14 mg capsules, gildeuretinol acetate 24 mg capsules, or placebo capsules, to be taken once daily for one year. After one year, 50% of randomly selected patients receiving placebo were crossed over in a 1:1 ratio to gildeuretinol acetate 14 mg capsules or gildeuretinol acetate 24 mg capsules for a second year.
Gildeuretinol acetate and placebo capsules were identical appearing capsules. Patients were advised to avoid vitamin A-containing supplements and liver-based products. Fruits and vegetables contain beta-carotene, not preformed vitamin A, and could be consumed without limitation. Trial visits occurred at 8 weeks and 6, 12, 18, and 24 months following screening and randomization.
Deidentified retinal images of patients not enrolled in the trial were included as a natural history cohort. This natural history cohort comprised patients diagnosed with Stargardt disease of any age, with two or more longitudinal fundus autofluorescence images taken at least four months apart over a maximum period of 2.5 years.
The prespecified primary efficacy endpoint was the growth rate of the square root area of atrophic retinal lesions measured by fundus autofluorescence retinal imaging comparing gildeuretinol versus the untreated arm (placebo combined with natural history). Only well-delineated and homogeneous retinal atrophic lesions≥0.2 mm^2 with a summed area≥0.5 mm^2 were included in the primary analysis.
The primary endpoint analysis used a linear mixed-effect model (LMEM) with repeated measures, conferring a higher power to detect smaller effects. All observed data, including both eyes, were utilized. Treatment duration was computed as a continuous measure for each visit based on years since randomization. Adjustments for baseline retinal atrophy used the baseline atrophic retinal lesion size as a fixed effect in the LMEM. Additional fixed effects included treatment arm, treatment duration, and interaction between the treatment arm and treatment duration. Random effects included patient, eye, grader to adjust for correlation between eyes within a patient, graders' assessment of an eye, and observations of the same eye over time. A random effect slope term was added to the effect of treatment duration. Patients who crossed over to gildeuretinol acetate after year one were included in the untreated arm from baseline to year one, then in the gildeuretinol acetate arm from […] upon crossing over to gildeuretinol acetate. The full analysis set (FAS) comprised all randomized patients who received at least one dose of the study drug.
Growth rates of atrophic retinal lesions were computed as two segmented lines over the 24-month treatment period; the first segment was between 0 and 6 months, and the second was between 6 and 24 months. All available data between 0 and 24 months was used to compute the slope of each segment. The primary efficacy endpoint was the slope of the second segment. No constraints were imposed on the Y-intercept. All growth rates were calculated on a per-year basis.
No imputations were made for missing data because the LMEM yields valid inferences under the assumption of a missing-at-random mechanism. […]

For `CC(=O)OC/C=C(C)/C=C/C=C(C)/C=C/C1=C(C)CCCC1(C)C` [gildeuretinol acetate, C20-D3-retinol acetate], the “BCVA of treated siblings” value ([1]; 2 to 4 years) was 88±4 ETDRS letters, the “average improvement of BCVA versus untreated siblings” value ([1]; age-matched untreated siblings) was 22±13 letters and the “average improvement of BCVA versus untreated siblings, lines of vision on the ETDRS eyechart” value ([1]; age-matched untreated siblings) was “four”. For the same compound, the “changes by FAF (flecks, autofluorescence, atrophy)” value [2] was “none of the three treated asymptomatic Stargardt disease patients exhibited changes by FAF; also recorded: absence of FAF changes in all three Stargardt disease patients”, the “effect on retinal degeneration / growth of atrophic retinal lesions (in words)” value [3] was “met its prespecified primary efficacy endpoint, slowing the mean growth rate of atrophic retinal lesions relative to placebo and natural history; also recorded: slowed the expansion of retinal atrophic lesions; also recorded: slowed the progression of retinal degeneration; also recorded: slows retinal degeneration” and the “effect on retinal degeneration / growth of atrophic retinal lesions (in words)” value ([3]; listed as Gildeuretinol acetate) was “met its prespecified primary efficacy endpoint, slowing the mean growth rate of atrophic retinal lesions”. For the same compound, the “Percentage Slowing of Atrophic Retinal Lesion Growth Rate With Gildeuretinol Acetate” value (“Percentage Slowing” for short) ([3]; crossover patients: 12 months placebo vs. 12 months treatment) was 21%, the “estimated treatment effect (slowing of atrophic retinal lesion growth)” value ([3]; depending on the calculation method) was 20% to 30 and the “Percentage Slowing” value ([3]; excluding 2 natural history cases < 18 years old, 9 natural histories > 60 years old) was 21%. For the same compound, the “Percentage Slowing” value ([3]; excluding 3 randomized patients with one confirmed mutation) was 20%, the “Percentage Slowing” value ([3]; excluding 13 natural history cases without any confirmed ABCA4 mutations and 6 with one confirmed mutation) was 20% and the “Percentage Slowing” value ([3]; excluding 16 natural histories with only two follow up time points) was 20%. The “Percentage Slowing” value ([3]; excluding natural history, randomized patients only, one slope (mm^2)) was 30%, the “Percentage Slowing” value ([3]; excluding natural history, randomized patients only, two slopes (mm^2)) was 23% and the “growth rate of atrophic retinal lesions” value ([3]; gildeuretinol acetate arm (14 mg and 24 mg pooled), square root area, slope 6 to 24 months) was 0.19 mm/year. The “Percentage Slowing” value ([3]; using a single-slope from 0 to 24 months (mm^2)) was 31%, the “Percentage Slowing” value ([3]; using untransformed areas of atrophic lesions (mm^2)) was 28% and the “difference in growth rate of atrophic retinal lesions versus control” value ([3]; vs placebo + natural history, 95% CI 0.03 to 0.07) was 0.05 mm/year.
